Test results reported in patent US12491170B2, “Stable treprostinil prodrugs” (United Therapeutics Corporation, priority 2020, dated 2025).
Where two headings read alike, the source gives them in different places. Blank lines part the entries; values can stand above or below the compound they belong to.

Key:
[1] = Stability in liver microsomes, human; conditions: for AUC: human
[2] = Stability in liver microsomes, rat
[3] = Stability in liver microsomes, dog
[4] = Stability in cryopreserved hepatocytes, human; conditions: for AUC: human
[5] = Stability in cryopreserved hepatocytes, rat; conditions: for AUC: rat
[6] = Stability in cryopreserved hepatocytes, dog; conditions: for AUC: dog
[7] = Stability in human subcutaneous skin homogenate; conditions: for AUC: human
[8] = rat
[9] = dog

SMILES: CCCCCC(CCC1C(O)CC2Cc3c(cccc3OCC(=O)O)CC21)OCC (stereo not shown) [XLVII]
Trep Concentration 0 min [1]: 0 µM
Trep Concentration 10 min [1]: 0.0448 µM
Trep Concentration 20 min [1]: 0.0686 µM
Trep Concentration 30 min [1]: 0.0816 µM
Trep Concentration 60 min [1]: 0.124 µM
AUC [1]: 4.63 µmol·min/L
Trep Concentration 0 min [2]: 0 µM
Trep Concentration 10 min [2]: 0.0292 µM
Trep Concentration 20 min [2]: 0.0421 µM
Trep Concentration 30 min [2]: 0.0553 µM
Trep Concentration 60 min [2]: 0.0719 µM
Trep Concentration 0 min [3]: 0 µM
Trep Concentration 10 min [3]: 0.0118 µM
Trep Concentration 20 min [3]: 0.0187 µM
Trep Concentration 30 min [3]: 0.0285 µM
Trep Concentration 60 min [3]: 0.0499 µM
Trep Concentration (μM) 0 min [4]: 0 µM
Trep Concentration (μM) 15 min [4]: 0.0152 µM
Trep Concentration (μM) 30 min [4]: 0.0199 µM
Trep Concentration (μM) 60 min [4]: 0.0215 µM
Trep Concentration (μM) 120 min [4]: 0.0212 µM
AUC [4]: 2.28 µmol·min/L
Trep Concentration (μM) 0 min [5]: 0 µM
Trep Concentration (μM) 15 min [5]: 0.0168 µM
Trep Concentration (μM) 30 min [5]: 0.0209 µM
Trep Concentration (μM) 60 min [5]: 0.0231 µM
Trep Concentration (μM) 120 min [5]: 0.0216 µM
AUC [5]: 2.41 µmol·min/L
Trep Concentration (μM) 0 min [6]: 0 µM
Trep Concentration (μM) 15 min [6]: 0 µM
Trep Concentration (μM) 30 min [6]: 0 µM
Trep Concentration (μM) 60 min [6]: 0.00355 µM
Trep Concentration (μM) 120 min [6]: 0.00371 µM
AUC [6]: 0.27 µmol·min/L
Trep Concentration 0 min [7]: 0 µM
AUC [8]: 2.90 µmol·min/L
AUC [9]: 1.62 µmol·min/L

SMILES: CCCCCC(CCC1C(O)CC2Cc3c(cccc3OCC(=O)O)CC21)OC(=O)C1CCCN1 (stereo not shown) [XXXVI]
Trep Concentration 0 min [1]: 0.443 µM
Trep Concentration 10 min [1]: 0.502 µM
Trep Concentration 20 min [1]: 0.478 µM
Trep Concentration 30 min [1]: 0.379 µM
Trep Concentration 60 min [1]: 0.316 µM
AUC [1]: 24.34 µmol·min/L
Trep Concentration 0 min [2]: 0.154 µM
Trep Concentration 10 min [2]: 0.242 µM
Trep Concentration 20 min [2]: 0.326 µM
Trep Concentration 30 min [2]: 0.342 µM
Trep Concentration 60 min [2]: 0.463 µM
Trep Concentration 0 min [3]: 0.102 µM
Trep Concentration 10 min [3]: 0.199 µM
Trep Concentration 20 min [3]: 0.309 µM
Trep Concentration 30 min [3]: 0.353 µM
Trep Concentration 60 min [3]: 0.483 µM
Trep Concentration (μM) 0 min [4]: 0 µM
Trep Concentration (μM) 15 min [4]: 0.502 µM
Trep Concentration (μM) 30 min [4]: 0.512 µM
Trep Concentration (μM) 60 min [4]: 0.45 µM
Trep Concentration (μM) 120 min [4]: 0.482 µM
AUC [4]: 53.76 µmol·min/L
Trep Concentration (μM) 0 min [5]: 0.00925 µM
Trep Concentration (μM) 15 min [5]: 0.494 µM
Trep Concentration (μM) 30 min [5]: 0.511 µM
Trep Concentration (μM) 60 min [5]: 0.505 µM
Trep Concentration (μM) 120 min [5]: 0.499 µM
AUC [5]: 56.67 µmol·min/L
Trep Concentration (μM) 0 min [6]: 0 µM
Trep Concentration (μM) 15 min [6]: 0.229 µM
Trep Concentration (μM) 30 min [6]: 0.276 µM
Trep Concentration (μM) 60 min [6]: 0.264 µM
Trep Concentration (μM) 120 min [6]: 0.279 µM
AUC [6]: 29.90 µmol·min/L
Trep Concentration 0 min [7]: 0 µM
Trep Concentration 30 min [7]: 0.328 µM
Trep Concentration 60 min [7]: 0.559 µM
Trep Concentration 120 min [7]: 0.852 µM
AUC [7]: 60.56 µmol·min/L
AUC [8]: 20.24 µmol·min/L
AUC [9]: 19.90 µmol·min/L

SMILES: CCCCCC(CCC1C(O)CC2Cc3c(cccc3OCC(=O)O)CC21)OC(=O)C(C)C (stereo not shown) [LXVII]
Trep Concentration 0 min [1]: 1.02 µM
Trep Concentration 10 min [1]: 0.877 µM
Trep Concentration 20 min [1]: 0.755 µM
Trep Concentration 30 min [1]: 0.664 µM
Trep Concentration 60 min [1]: 0.393 µM
AUC [1]: 40.60 µmol·min/L
Trep Concentration 0 min [2]: 0.281 µM
Trep Concentration 10 min [2]: 0.369 µM
Trep Concentration 20 min [2]: 0.419 µM
Trep Concentration 30 min [2]: 0.471 µM
Trep Concentration 60 min [2]: 0.433 µM
Trep Concentration 0 min [3]: 0.987 µM
Trep Concentration 10 min [3]: 0.972 µM
Trep Concentration 20 min [3]: 0.982 µM
Trep Concentration 30 min [3]: 0.993 µM
Trep Concentration 60 min [3]: 0.816 µM
Trep Concentration (μM) 0 min [4]: 0.0174 µM
Trep Concentration (μM) 15 min [4]: 0.631 µM
Trep Concentration (μM) 30 min [4]: 0.572 µM
Trep Concentration (μM) 60 min [4]: 0.506 µM
Trep Concentration (μM) 120 min [4]: 0.446 µM
AUC [4]: 58.62 µmol·min/L
Trep Concentration (μM) 0 min [5]: 0 µM
Trep Concentration (μM) 15 min [5]: 0.215 µM
Trep Concentration (μM) 30 min [5]: 0.217 µM
Trep Concentration (μM) 60 min [5]: 0.189 µM
Trep Concentration (μM) 120 min [5]: 0.172 µM
AUC [5]: 21.77 µmol·min/L
Trep Concentration (μM) 0 min [6]: 0.09 µM
Trep Concentration (μM) 15 min [6]: 0.616 µM
Trep Concentration (μM) 30 min [6]: 0.554 µM
Trep Concentration (μM) 60 min [6]: 0.459 µM
Trep Concentration (μM) 120 min [6]: 0.42 µM
AUC [6]: 55.64 µmol·min/L
Trep Concentration 0 min [7]: 0 µM
Trep Concentration 30 min [7]: 0.224 µM
Trep Concentration 60 min [7]: 0.408 µM
Trep Concentration 120 min [7]: 0.657 µM
AUC [7]: 44.79 µmol·min/L
AUC [8]: 25.20 µmol·min/L
AUC [9]: 56.58 µmol·min/L

SMILES: CCCCCC(CCC1C(O)CC2Cc3c(cccc3OCC(=O)O)CC21)OCOC(=O)C(C)(C)C (stereo not shown) [LII]
Trep Concentration 0 min [1]: 0.948 µM
Trep Concentration 10 min [1]: 0.798 µM
Trep Concentration 20 min [1]: 0.679 µM
Trep Concentration 30 min [1]: 0.538 µM
Trep Concentration 60 min [1]: 0.346 µM
AUC [1]: 35.46 µmol·min/L
Trep Concentration 0 min [2]: 0.937 µM
Trep Concentration 10 min [2]: 0.938 µM
Trep Concentration 20 min [2]: 0.892 µM
Trep Concentration 30 min [2]: 0.838 µM
Trep Concentration 60 min [2]: 0.802 µM
Trep Concentration 0 min [3]: 0.758 µM
Trep Concentration 10 min [3]: 0.885 µM
Trep Concentration 20 min [3]: 0.868 µM
Trep Concentration 30 min [3]: 0.834 µM
Trep Concentration 60 min [3]: 0.84 µM
Trep Concentration 0 min [7]: 0.0201 µM
Trep Concentration 30 min [7]: 1.05 µM
Trep Concentration 60 min [7]: 1.22 µM
Trep Concentration 120 min [7]: 1.3 µM
AUC [7]: 125.70 µmol·min/L
AUC [8]: 51.78 µmol·min/L
AUC [9]: 50.60 µmol·min/L

Further lines, results first:

Trep Concentration 0 min [1]: 0.137 µM
Trep Concentration 10 min [1]: 0.171 µM
Trep Concentration 20 min [1]: 0.174 µM
Trep Concentration 30 min [1]: 0.163 µM
Trep Concentration 60 min [1]: 0.125 µM
AUC [1]: 9.27 µmol·min/L
Trep Concentration 0 min [2]: 0 µM
Trep Concentration 10 min [2]: 0.00512 µM
Trep Concentration 20 min [2]: 0.00637 µM
Trep Concentration 30 min [2]: 0.009 µM
Trep Concentration 60 min [2]: 0.0074 µM
Trep Concentration 0 min [3]: 0.17 µM
Trep Concentration 10 min [3]: 0.325 µM
Trep Concentration 20 min [3]: 0.433 µM
Trep Concentration 30 min [3]: 0.451 µM
Trep Concentration 60 min [3]: 0.558 µM
Trep Concentration (μM) 0 min [4]: 0 µM
Trep Concentration (μM) 15 min [4]: 0.192 µM
Trep Concentration (μM) 30 min [4]: 0.179 µM
Trep Concentration (μM) 60 min [4]: 0.217 µM
Trep Concentration (μM) 120 min [4]: 0.237 µM
AUC [4]: 23.78 µmol·min/L
Trep Concentration (μM) 0 min [5]: 0 µM
Trep Concentration (μM) 15 min [5]: 0.00943 µM
Trep Concentration (μM) 30 min [5]: 0.0122 µM
Trep Concentration (μM) 60 min [5]: 0.0182 µM
Trep Concentration (μM) 120 min [5]: 0.0273 µM
AUC [5]: 2.05 µmol·min/L
Trep Concentration (μM) 0 min [6]: 0 µM
Trep Concentration (μM) 15 min [6]: 0.0727 µM
Trep Concentration (μM) 30 min [6]: 0.111 µM
Trep Concentration (μM) 60 min [6]: 0.19 µM
Trep Concentration (μM) 120 min [6]: 0.258 µM
AUC [6]: 19.88 µmol·min/L
Trep Concentration 0 min [7]: 0 µM
Trep Concentration 30 min [7]: 0.0159 µM
Trep Concentration 60 min [7]: 0.0303 µM
Trep Concentration 120 min [7]: 0.0592 µM
AUC [7]: 3.62 µmol·min/L
AUC [8]: 0.41 µmol·min/L
AUC [9]: 25.82 µmol·min/L
SMILES: CCCCCC(CCC1C(O)CC2Cc3c(cccc3OCC(=O)O)CC21)OC(=O)C(C)(C)C (stereo not shown) [XLIX]

Trep Concentration 0 min [1]: 0.0216 µM
Trep Concentration 10 min [1]: 0.0336 µM
Trep Concentration 20 min [1]: 0.0343 µM
Trep Concentration 30 min [1]: 0.0459 µM
Trep Concentration 60 min [1]: 0.0354 µM
AUC [1]: 2.24 µmol·min/L
Trep Concentration 0 min [2]: 0.0196 µM
Trep Concentration 10 min [2]: 0.0177 µM
Trep Concentration 20 min [2]: 0.024 µM
Trep Concentration 30 min [2]: 0.0274 µM
Trep Concentration 60 min [2]: 0.0271 µM
Trep Concentration 0 min [3]: 0.0189 µM
Trep Concentration 10 min [3]: 0.0224 µM
Trep Concentration 20 min [3]: 0.0209 µM
Trep Concentration 60 min [3]: 0.0222 µM
Trep Concentration 0 min [7]: 0.0159 µM
Trep Concentration 30 min [7]: 0.0165 µM
Trep Concentration 60 min [7]: 0.0165 µM
AUC [7]: 1.99 µmol·min/L
AUC [8]: 1.47 µmol·min/L
AUC [9]: 1.33 µmol·min/L
SMILES: CCCCCC(O)CCC1C(OC)CC2Cc3c(cccc3OCC(=O)O)CC21 (stereo not shown) [LIII]

Trep Concentration 0 min [1]: 0.0531 µM
Trep Concentration 10 min [1]: 0.193 µM
Trep Concentration 20 min [1]: 0.31 µM
Trep Concentration 30 min [1]: 0.327 µM
Trep Concentration 60 min [1]: 0.383 µM
AUC [1]: 17.58 µmol·min/L
Trep Concentration 0 min [2]: 0.00504 µM
Trep Concentration 10 min [2]: 0.0179 µM
Trep Concentration 20 min [2]: 0.0351 µM
Trep Concentration 30 min [2]: 0.0465 µM
Trep Concentration 60 min [2]: 0.107 µM
Trep Concentration 0 min [3]: 0.134 µM
Trep Concentration 10 min [3]: 0.479 µM
Trep Concentration 20 min [3]: 0.63 µM
Trep Concentration 30 min [3]: 0.674 µM
Trep Concentration 60 min [3]: 0.694 µM
Trep Concentration 0 min [7]: 0 µM
Trep Concentration 60 min [7]: 0.204 µM
Trep Concentration 120 min [7]: 0.323 µM
AUC [7]: 22.23 µmol·min/L
AUC [8]: 3.09 µmol·min/L
AUC [9]: 35.65 µmol·min/L
SMILES: CCCCCC(CCC1C(O)CC2Cc3c(cccc3OCC(=O)O)CC21)OC(=O)C(C)N (stereo not shown) [XXXI]
